Laboratory results published in ChEMBL document CHEMBL3886721, “Thienopyrimidine compounds and use thereof” (2016).

Target: T1, Gonadotropin-releasing hormone receptor (Macaca fascicularis, UniProt G7P5Q7)
T1 sequence (G7P5Q7 whole entry): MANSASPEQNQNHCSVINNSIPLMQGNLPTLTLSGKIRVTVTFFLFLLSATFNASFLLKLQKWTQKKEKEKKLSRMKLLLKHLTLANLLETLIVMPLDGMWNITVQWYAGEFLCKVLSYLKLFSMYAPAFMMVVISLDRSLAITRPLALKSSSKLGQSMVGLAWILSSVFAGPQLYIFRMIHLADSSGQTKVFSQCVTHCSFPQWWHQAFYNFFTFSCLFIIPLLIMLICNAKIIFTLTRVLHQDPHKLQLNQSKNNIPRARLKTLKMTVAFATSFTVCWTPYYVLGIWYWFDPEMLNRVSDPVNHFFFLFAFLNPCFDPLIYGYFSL
Experiment: 125I-Leuprorelin Binding Assay: The monkey and human membrane fractions prepared were diluted with the assay buffer to yield a 200 µg/ml dilution, each of which was then dispensed at 188 μl per tube. To a tube containing the cell membrane fraction of the CHO with monkey GnRH receptors expressed were added 2 μl of a solution of 20 mM compound in 60% DMSO and 10 μl of 38 nM 125I-leuprorelin. To a tube containing the cell membrane fraction of the CHO with human GnRH receptors expressed were added 2 μl of a solution of 2 mM compound in 60% DMSO and 10 μl of 38 nM 125I-leuprorelin. To determine maximum binding quantity, a reaction mixture containing 2 μl of 60% DMSO and 10 μl of 38 nM 125I-leuprorelin was prepared. To determine non-specific binding amount, a reaction mixture containing 2 μl of a solution of 100 μM leuprorelin in 60% DMSO and 10 μl of 38 nM 125I-leuprorelin was prepared.

IC50: 3 nM
SMILES: CCOCCN(C)Cc1c(-c2ccc(NC(=O)NOC)cc2)sc2c1c(=O)n(-c1ccccn1)c(=O)n2Cc1c(F)cccc1F
